Results reported in US6521656B1, “Remedies for male sterility” (Fujisawa Pharmaceutical Co., Ltd., priority 1998, dated 2003).

System: human sperm
Assay: Test for evaluation of the promoting effect on the induction of sperm acrosomal reaction (FITC-concanavalin A fluorescence staining)
Assay type: cell-based
Conditions: for acrosomal reaction induction rate (%): incubation time 3; for induction of acrosomal reaction: human sperm, summary in words
Method: Percoll for sperm washing was isotonized and adjusted to 90% with 20 mM Hepes buffered Hanks solution (pH 7.4; supplemented with 1.0 mg/ml BSA). The ejaculated human seminal fluid was allowed to liquefy at room temperature, diluted 2-fold with Hanks solution, and layered on 6.0 ml Percoll. In the Percoll layer, a glass capillary had been inserted in advance. The system was centrifuged at 1000×g for 30 minutes to precipitate motile sperm. The precipitated sperm was aspirated through the capillary and recovered. The sperm was resuspended in Hanks solution at a final concentration of about 50×10^6/ml and cultured at 37° C.
The human sperm acrosomal reaction was monitored by a fluorescence staining technique using FITC-concanavalin A.
As the acrosomal cap splits off on acrosomal reaction, the membrane protein rich in the high-mannose sugar chain on the acrosomal tunica intima becomes exposed. Therefore, the sperm showing a yellow fluorescence in the anterior half of the head was regarded as acrosomal reaction-induced sperm.
Compound A was added to the sperm suspension at a final concentration of 10^−6 or 10^−7 M. Observation was made in the group supplemented with 1 I.U./ml of adenosine deaminase and the non-enzyme-addition group.
Compounds B and C were respectively added to the sperm suspension at a final concentration of 10^−7 M. Observation was made in the groups supplemented with 1 I.U./ml of adenosine deaminase.
Each figure denotes the acrosomal reaction induction rate (%) (the mean±S.E. of 3 observations in Table 1; the mean±S.E. of 5 observations in Tables 2 and 3). In Table 1, the figure in the top row represents the result obtained in the absence of adenosine deaminase and the figures in the bottom row represent the results in the presence of adenosine deaminase.

| SMILES | acrosomal reaction induction rate (%) (Compound B 10^−7 M, supplemented with 1 I.U./ml adenosine deaminase, mean±S.E. of 5 observations) | induction of acrosomal reaction | acrosomal reaction induction rate (%) (Compound A 10^−6 M, absence of adenosine deaminase, mean±S.E. of 3 observations) | acrosomal reaction induction rate (%) (Compound A 10^−6 M, presence of adenosine deaminase 1 I.U./ml, mean±S.E. of 3 observations) | acrosomal reaction induction rate (%) (Compound A 10^−7 M, absence of adenosine deaminase, mean±S.E. of 3 observations) | acrosomal reaction induction rate (%) (Compound A 10^−7 M, presence of adenosine deaminase 1 I.U./ml, mean±S.E. of 3 observations) | acrosomal reaction induction rate (%) (Compound C 10^−7 M, supplemented with 1 I.U./ml adenosine deaminase, mean±S.E. of 5 observations) |
| --- | --- | --- | --- | --- | --- | --- | --- |
| O=C(O)C[C@H]1CCCCN1C(=O)C=Cc1c(-c2ccccc2)nn2ccccc12 (single isomer, unassigned) [Compound B] | 41.26 ± 2.18% | promoted | – | – | – | – | – |
| O=C(O)CCCn1nc(-c2c(-c3ccccc3)nn3ccccc23)ccc1=O [Compound A, 3-[2-(3-Carboxypropyl)-3-oxo-2,3-dihydropyridazin-6-yl]-2-phenylpyrazolo[1,5-a]pyridine] | – | promoted | 43.7 ± 2.77% | 63.6 ± 1.84% | 47.1 ± 2.37% | 64.1 ± 1.73% | – |
| O=C(O)CC1=C(n2nc(-c3c(-c4ccccc4)nn4ccccc34)ccc2=O)CCCC1 [Compound C, 3-[2-(2-Carboxymethyl-1-cyclohexenyl)-3-oxo-2,3-dihydropyridazin-6-yl]-2-phenylpyrazolo[1,5-a]pyridine] | – | promoted | – | – | – | – | 48.86 ± 2.57% |
